From article PMC4428838, “Optimization of Invasion-Specific Effects of Betulin Derivatives on Prostate Cancer Cells through Lead Development” (PLoS ONE, 2015)

Legend:
Type in all cases: cell-based
Ep156T cell line = assay: Secondary 3D screen (spheroid size, complexity, cell death); conditions: at the highest concentration
Source text: (§1) Next, the 25 selected betulin derivatives depicted in Figs 1–3 including control compounds were again thoroughly tested across the same panel of prostate-derived cell lines already used in the preliminary, 2D high-throughput screen. The resulting dendrograms were either generated separately for each cell line (S4 Fig), combined into a single dendrogram (Fig 5A), or shown as reduced organoid sizes (area; Fig 5B).
(§2) Fig 5 Secondary 3D screens. Experimental betulin derivatives and control compounds were tested across a panel of prostate cancer lines (LNCaP, LAPC-4) and non-transformed, prostate epithelial cells (EP156T) in 3D culture. A) The dendrogram is based on three main morphological parameters and combines all data from primary and secondary 3D screens. […] B) Boxplots showing the impact of selected compounds on spheroid size (Area). Data scaling: as described in Fig 4 C) Effects of all betulin derivatives and control compounds on cell death (number of dead cells).
(§3) All 3D cultures were done in growth factor-free Matrigel Basement-membrane Matrix (Corning Inc., New York, NY, USA) using 96-well Angiogenesis μ-plates (ibidi GmbH, Munich, Germany) as described before.[38] “Sandwich” assays in short: bottom wells of cooled Angiogenesis plates were filled with 10 μL 4 mg/mL Matrigel, centrifuged for 20 min 200 g and incubated at 37°C temperature for approximately 30–60 min or until the ECM had polymerized. 1,000–1,500 cells were mixed in 2 mg/mL ECM-medium, and 20 μL of cell suspension was added in each well. The plates were centrifuged for 10 min at 100 g, or until the cells had settled on top of the lower ECM. Finally, the outer wells and side reservoirs were filled with water for humidification, and the culture plates placed into the incubator for 3–4 h or overnight. The following day, 60 μL of cell culture medium were added; refreshed every third day by carefully aspirating the medium. This “sandwich” setting allows almost unifocal alignment of cells and 3D structures in a single optical plane, thus reducing the time required for confocal stack imaging.
(§4) All control compounds were purchased from Selleck (Munich, Germany), except for staurosporine (Sigma-Aldrich, St. Louis, MO, USA) and Y-27632 (Tocris, Bristol, UK) and dissolved in dimethyl sulfoxide (DMSO) as a vehicle at 10 mM. In the primary and secondary 3D screens, experimental and control compound exposures were performed in triplicates. Four concentrations for each compound were applied (0.03, 0.1, 0.3 and 1 μM). Compound treatments were initiated four days after cell embedding, and continued for six days after which spheroids were stained and imaged.
(§5) Supplementary file pone.0126111.s004.eps: S4 Fig Secondary screens. Dendrograms for A) LNCaP, B) LAPC-4, and C) Ep156T betulin screens in 3D culture have been constructed using three main read-outs: spheroid size, spheroid complexity, and cell death. […] (EPS) Click here for additional data file.

PC-3 cells = assay: Primary 3D screen in Matrigel ECM, morphometric image analysis (AMIDA) of invasion, growth and cell death; conditions: PC-3 in 3D Matrigel; for anti-invasive effects in 3D culture (in words): 0.03-1 μM
Description: Three standard of care compounds widely used against PrCa were added as controls; namely, the androgen receptor antagonist enzalutamide (MDV3100), the C17α-hydroxylase/C17,20-lyase inhibitor abiraterone (Zytiga), and the classic mitotic inhibitor paclitaxel. Treatments started at day 4, when well-differentiated round acini were established.
The live 3D cell cultures were then stained with reactive dyes Calcein AM to detect living, and ethidium homodimer to detect dead cells. Images (Fig 4A) were acquired with confocal microscope and image data were analyzed with the AMIDA software. The principles of morphometric image analysis are briefly outlined in S2 Fig.
Fig 4 Primary 3D screen. PC-3 cells were cultured in 3D Matrigel ECM for 4 days and treated for 6 days with 25 betulin derivatives (from 2D high throughput screens), DMSO/vehicle control, and three reference compounds. A) Representative maximum intensity projections of confocal microscope stack images for selected compound treatments at 300 nM concentration (5× objective, scale 100 μm). B) Three graphs showing the relative impact on three morphometric parameters for 7 betulin derivatives, DMSO control, and one control compound (paclitaxel). […] C) Hierarchical clustering was done using three morphological parameters derived from PC3 organoids: spheroid size (area), complexity and the number of dead cells. D) Wound healing curves of the two betulin derivatives 4 and 20, highlighting the 50% cut-off level (orange dashed line).
Next, statistical analyses were performed to interpret the complex image data (Fig 4B and 4C). For simplicity, we focused on only three, basic morphologic parameters from the multiparametric AMIDA readout (Fig 4B): 1) Area (indicating growth of organoids), 2) structural Complexity (as a measure of the intensity of invasion), and 3) Relative Area of dead cells within organoids (red signal as a measure of cytoxicity or apoptosis). Area (Size of organoids; Fig 4B, upper panel) was measured as the number of pixels within a segmented structure. […] Shape Complexity (Fig 4B, middle panel) was obtained using the structure size (area) and perimeter (number of border pixels). The more regular the shape of an organoid, the closer it is to a perfect circle, thus minimizing the perimeter relative to object size. […] Deviations from this average (residuals) were interpreted as a measure for the shape complexity of organoids. As a logical lower limit for this measure (represented by a perfect circle), we adjusted the intercept (height level) of the regression line to render all returned residuals as positive numbers.
All 3D cultures were done in growth factor-free Matrigel Basement-membrane Matrix (Corning Inc., New York, NY, USA) using 96-well Angiogenesis μ-plates (ibidi GmbH, Munich, Germany) as described before.[38] “Sandwich” assays in short: bottom wells of cooled Angiogenesis plates were filled with 10 μL 4 mg/mL Matrigel, centrifuged for 20 min 200 g and incubated at 37°C temperature for approximately 30–60 min or until the ECM had polymerized. 1,000–1,500 cells were mixed in 2 mg/mL ECM-medium, and 20 μL of cell suspension was added in each well. The plates were centrifuged for 10 min at 100 g, or until the cells had settled on top of the lower ECM. Finally, the outer wells and side reservoirs were filled with water for humidification, and the culture plates placed into the incubator for 3–4 h or overnight. The following day, 60 μL of cell culture medium were added; refreshed every third day by carefully aspirating the medium.

LAPC-4 = assay: Secondary 3D screen (spheroid size, complexity, cell death); conditions: yellow and red clusters
Source text: as §1, §2, §3, §4, §5

[1] = tested on: PC-3, LNCaP, LAPC-4, Ep156T; assay: Primary and secondary 3D screens combined across the cell line panel; conditions: cell lines other than PC-3, 3D, 300 nM or lower (except compound 15)
Description: Fig 5 Secondary 3D screens. Experimental betulin derivatives and control compounds were tested across a panel of prostate cancer lines (LNCaP, LAPC-4) and non-transformed, prostate epithelial cells (EP156T) in 3D culture. A) The dendrogram is based on three main morphological parameters and combines all data from primary and secondary 3D screens. Effective compound treatments are indicated in red and yellow, yellow being the most invasion-specific. B) Boxplots showing the impact of selected compounds on spheroid size (Area). Data scaling: as described in Fig 4 C) Effects of all betulin derivatives and control compounds on cell death (number of dead cells).
In order to assist functional categorization of our betulin derivatives, we combined all data into a single dendrogram, shown in Fig 5A. In addition, multiparametric representation of all experimental data as a single heatmap is highly informative (S5 Fig) and a potent way to illustrate the effects of compounds on growth, structural complexity and cell death across multiple cell lines. […] However, at lower concentrations, these compounds may act as potent and specific inhibitors of cell invasion and motility.
Supplementary file pone.0126111.s005.eps: S5 Fig Primary and secondary screens. […] The main read-outs (Area = Size, Complexity = Invasiveness, Red = Cell death) are shown in their own columns. Data scaling: DMSO control has been given a value 0 whereas paclitaxel control is valued -100 or 100 depending on the read-out. Color key is located in the upper right corner. (EPS) Click here for additional data file.
Supplementary file pone.0126111.s006.tif: S6 Fig Confocal images from primary and secondary betulin screens. Viable cells have been stained with calcein AM (green) and dead cells with ethidium homodimer-2 (red) (5× objective, maximum intensity projections, scale bar = 100 μm). (TIF) Click here for additional data file.

[2] = tested on: actin cytoskeleton of PC-3, LNCaP and Ep156T spheroids; assay: F-actin cytoskeleton (phalloidin staining) in 3D spheroids; conditions: after 48 hours of exposure; seen in Ep156T acini and PC-3 spheroids, not LNCaP
Source text: […] […] For phenotypic comparisons, we tested a panel of reference compounds targeting Akt, Rac, ROCK, Src, and other pathways, broadly linked to the actin cytoskeleton.
Fig 8 3D morphologies of prostate spheroids, exposed to selected betulin derivatives and captured with a confocal microscope. Actin cytoskeleton (filamentous or F-actin) is stained green (phalloidin), nuclei with a red dye (confocal microscope images, 40× objective, scale bar shown for each panel on the right lower corner).

LNCaP organoids = assay: Secondary 3D screen (spheroid size, complexity, cell death); conditions: dendrogram clusters
Source text: as §1, §2, §3, §4, §5

| SMILES | anti-invasive effects in 3D culture (in words) (PC-3 cells; 6 days treatment) | efficacy in 3D LAPC-4 culture (dendrogram clusters) (LAPC-4) | effects on the other cell lines at anti-invasive concentrations [1] | organization of actin cytoskeleton in 3D spheroids [2] | further results |
| --- | --- | --- | --- | --- | --- |
| C=C(C)[C@@H]1CC[C@]2(C(=O)O)CC[C@]3(C)C(CCC4[C@@]5(C)CCC(=O)C(C)(C)C5CC[C@]43C)C12 (stereo partly drawn) [Compound 2, betulonic acid] | did not show significant anti-invasive effects |  |  |  | response of Ep156T in 3D culture (Ep156T cell line): responded to betulonic acid |
| CC(C)[C@@H]1CC[C@]2(C(=O)O)CC[C@]3(C)C(CCC4[C@@]5(C)CCC(=O)C(C)(C)C5CC[C@]43C)C12 (stereo partly drawn) [Compound 3] | one of the most potent anti-invasive, growth inhibitory agents | most active | no noticeable effects on the other cell lines |  | concentration at which anti-invasive effects are seen in 3D (PC-3 cells; 6 days treatment): ≤ 300 nM |
| CN[C@@H]1C[C@H]2O[C@@](C)([C@@H]1OC)n1c3ccccc3c3c4c(c5c6ccccc6n2c5c31)C(=O)NC4 [staurosporine, reference compound] |  |  |  | affected the cytoskeleton in a comparable fashion |  |
| C=C(C)[C@@H]1CC[C@]2(C(=O)O)CC[C@]3(C)C(CCC4[C@@]5(C)Cc6nccnc6C(C)(C)C5CC[C@]43C)C12 (stereo partly drawn) [Compound 15] | most potent anti-invasive effects |  | no noticeable effects on the other cell lines | effectively disrupted the organization of actin cytoskeleton | concentration with strong anti-invasive effects in 3D (PC-3 cells; 6 days treatment): 1.0 µM; growth inhibition in 3D (PC-3 cells; at 1.0 μM): without any growth inhibition |
| CNC(=O)c1ccc(N2C(=S)N(c3ccc(C#N)c(C(F)(F)F)c3)C(=O)C2(C)C)cc1F [enzalutamide, reference compound] |  | efficacy of all positive controls |  |  | among the effective treatments in 3D LNCaP organoids (LNCaP organoids): among the effective treatments; effect on morphometric measures (area, complexity, dead cells) (PC-3 cells; paclitaxel at 30 and 100 nM): no noticeable effect |
